{"source": "paper PMC3547949", "about": "“The Immunosuppressive Agent Mizoribine Monophosphate Is an Inhibitor of the Human RNA Capping Enzyme” (PLoS ONE, 2013)", "key": {"[1]": {"target": "T1, human RNA capping enzyme (HCE) (Homo sapiens, UniProt O60942)", "T1 construct": "full-length bifunctional HCE protein (amino acid 1–597); 6-His (N); made in house; host or cells: Escherichia coli BL21(DE3), pET28a", "assay": "Complete RNA capping reaction (RTase+GTase) of a 5′-triphosphate RNA", "type": "biochemical", "method": "Reaction mixtures containing 5 µM [α-^32P]GTP, 5 µM of 5′-triphosphate RNA, 0.1 µM HCE, 50 mM Tris-HCl, pH 7.5, 5 mM MgCl2, 500 µM DTT, 0.5 ng/µl pyrophosphatase (Roche), and 1 U of RNAse Out (Invitrogen) were incubated for 15 min at 37°C. Reactions were stopped by the addition of 20 µl of phenol-chloroform. 10 µl of loading dye (97% formamide) was added to the aqueous phase and submitted to electrophoresis on a denaturing 10% polyacrylamide gel. Formation of the ^32P-radiolabeled GpppRNA was quantified with a PhosphorImager.\nIn order to investigate if MZP could inhibit the RNA capping reaction, we initially addressed its impact on the complete RNA capping reaction (RTase+GTase). A cold 5′-triphosphate RNA was incubated in the presence of HCE, [α-^32P]GTP, magnesium and increasing concentrations of MZP. […] To ensure that the inhibition by MZP was specific, the reaction was performed in the presence of increasing concentrations of GMP which is chemically related to MZP."}, "[2]": {"target": "T2, A103R (Paramecium bursaria Chlorella virus 1, UniProt Q84424)", "T2 sequence (Q84424 whole entry, stated change not applied)": "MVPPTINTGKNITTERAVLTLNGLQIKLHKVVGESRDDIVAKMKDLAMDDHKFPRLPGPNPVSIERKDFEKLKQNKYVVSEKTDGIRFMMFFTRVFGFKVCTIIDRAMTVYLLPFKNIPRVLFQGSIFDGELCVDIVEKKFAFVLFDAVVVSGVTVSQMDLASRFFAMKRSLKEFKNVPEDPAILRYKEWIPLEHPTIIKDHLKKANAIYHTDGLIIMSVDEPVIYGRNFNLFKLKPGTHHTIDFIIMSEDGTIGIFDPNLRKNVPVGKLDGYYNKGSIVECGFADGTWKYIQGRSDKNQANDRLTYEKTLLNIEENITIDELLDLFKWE", "type": "biochemical, Chlorella virus (PBCV-1)"}, "[3]": {"tested_on": "HCE-G229–597 (GTase domain of HCE)", "assay": "Complete GTase reaction with isolated GTase domain", "type": "biochemical, human"}, "[4]": {"target": "T3, HCE (Homo sapiens, UniProt O60942)", "T3 construct": "full-length bifunctional HCE protein (amino acid 1–597); 6-His (N); made in house; host or cells: Escherichia coli BL21(DE3), pET28a", "assay": "MZP transfer onto an acceptor RNA (cap donor substrate test)", "type": "biochemical", "conditions": "2 mM MZP, 2 h 37°C", "method": "Reaction mixtures containing 50 mM Tris-HCl, pH 7.5, 5 mM MgCl2, 500 µM DTT, 0.7 ng/µl pyrophosphatase (Roche), and 1 U of RNAse Out (Invitrogen), 1 µM of 5′-diphosphate RNA substrate (32 nt) harboring a α-^32P-radiolabeled 5′-phosphate, 0.2 µM HCE were incubated in absence or in presence of 2 mM GTP or MZP for 2 h at 37°C. The reaction pH was adjusted to 5.2 with 50 mM NaOAc followed by the addition of 5 µg of Nuclease P1 and incubation at 37°C for 60 min. The digestion were further adjusted with 50 mM Tris-HCl to pH 8.0, and digested with 1 U of alkalie phosphatase (Roche) for 30 min at 37°C. The reaction products were analyzed by thin-layer chromatography (TLC) on a polyethyleneimine-cellulose plate developed with 0.4 M ammonium sulfate.\nSupplementary file pone.0054621.s002.tif: Figure S2 MZP as a potential cap donor substrate for HCE. A 5′-diphosphate acceptor RNA initiating with a [α-^32P] guanosine was incubated in absence (lane 1) or in presence of MZP (lane 2) or GTP (lane 3) and HCE. The capping reaction was sequentially submitted to nuclease P1 then alkaline phosphatase prior to analysis by TLC on a polyethyleneimine-cellulose plate. An autoradiogram of the plate is shown. The locations of the origin and GpppG product are indicated by arrows (right). (TIF) Click here for additional data file."}, "[5]": {"target": "T4, Ceg1 (Saccharomyces cerevisiae, UniProt Q01159)", "T4 sequence (Q01159 1-459)": "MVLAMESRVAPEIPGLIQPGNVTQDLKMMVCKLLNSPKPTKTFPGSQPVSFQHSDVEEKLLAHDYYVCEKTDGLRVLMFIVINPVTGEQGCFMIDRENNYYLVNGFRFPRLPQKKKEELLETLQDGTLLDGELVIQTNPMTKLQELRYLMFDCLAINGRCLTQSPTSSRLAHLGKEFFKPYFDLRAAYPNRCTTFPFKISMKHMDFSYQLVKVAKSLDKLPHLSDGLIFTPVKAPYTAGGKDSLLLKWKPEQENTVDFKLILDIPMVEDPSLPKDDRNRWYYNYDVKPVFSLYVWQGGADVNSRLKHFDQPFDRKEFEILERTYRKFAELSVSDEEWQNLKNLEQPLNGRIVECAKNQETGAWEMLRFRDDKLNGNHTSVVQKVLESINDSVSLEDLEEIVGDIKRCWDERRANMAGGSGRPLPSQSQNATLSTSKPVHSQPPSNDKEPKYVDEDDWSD", "assay": "Enzyme-GMP (EpG) complex formation, yeast GTase", "type": "biochemical", "conditions": "GTase first step, compared with other GTases"}, "[6]": {"target": "T4, Ceg1", "assay": "Complete GTase reaction, yeast GTase", "type": "biochemical", "conditions": "0,5 µM Ceg1"}, "[7]": {"target": "T2, A103R", "type": "biochemical, Chlorella virus (PBCV-1)", "remark": "listed apart in the source"}, "[8]": {"target": "T5, D1R (Vaccinia virus, UniProt P04298)", "assay": "Enzyme-GMP (EpG) complex formation, vaccinia virus GTase", "type": "biochemical"}, "[9]": {"target": "T3, HCE", "assay": "GMP transfer on a 5′-diphosphate RNA, second GTase step", "type": "biochemical", "conditions": "single turnover", "method": "Formation of the enzyme-GMP complex was initially performed for 15 min at 37°C in a buffer containing 1.5 µM [α-^32P]GTP, 1 µM HCE, 70 mM Tris-HCl, pH 7.5, 7.5 mM MgCl2, 70 µM DTT, 0.7 ng/µl pyrophosphatase (Roche), and 1 U of RNAse Out (Invitrogen). The transfer reaction was then initiated by adding a 5′-diphosphate RNA (32 nt) to a final concentration of 0.5 µM with various concentration of MZP (as indicated). After 30 sec at 37°C, the transfer reaction was stopped by the addition of 20 µl of phenol-chloroform. 10 µl of loading dye (97% formamide) was added to the aqueous phase and submitted to electrophoresis on a denaturing 10% polyacrylamide gel. The formation of the ^32P-radiolabeled GpppRNA was quantified with a PhosphorImager.\nWe next investigated if the second step of the GTase reaction could be impaired by MZP. EpG complex formation was allowed to initially form upon incubation of HCE with excess [α-^32P]GTP, magnesium and pyrophosphatase. Next, various concentrations of MZP and a cold 5′-diphosphate RNA were added to initiate the transfer of the [α-^32P]GMP moiety onto the RNA in single turnover condition."}, "[10]": {"target": "T6, HCE RTase activity (Homo sapiens, UniProt O60942)", "T6 construct": "full-length bifunctional HCE protein (amino acid 1–597); 6-His (N); made in house; host or cells: Escherichia coli BL21(DE3), pET28a", "assay": "RNA triphosphatase (RTase) assay", "type": "biochemical", "conditions": "MZP up to 10 mM, full-length HCE", "method": "Reaction mixtures containing 50 mM Tris-HCl, pH 7.5, 5 mM MgCl2, 500 µM DTT, 3 µM of γ-^32P-radiolabeled 5′-triphosphate RNA substrate (32 nt), 0.1 µM HCE, and various concentration of MZP (as indicated) were incubated for 10 min at 37°C. The reactions were stopped by the addition of 2 µl of 5 M formic acid. Aliquots of each sample were analyzed on polyethyleneimine-cellulose thin-layer chromatography (TLC) plate, and developed with 0.5 M LiCl and 1 M formic acid. The release of ^32Pi was quantified by scanning the TLC plates with a PhosphorImager.\nWe next investigated the susceptibility of the RTase domain of HCE to MZP inhibition. To specifically monitor the effect of MZP on the RTase activity, a γ-^32P-radiolabeled 5′-triphosphate RNA was incubated with HCE and magnesium. RTase activity was monitored through the analysis of the ^32Pi product released from the radiolabeled RNA by TLC and autoradiography."}, "[11]": {"target": "T3, HCE", "assay": "Enzyme-GMP (EpG) complex formation, first GTase step", "type": "biochemical", "method": "The enzyme-GMP complex formation assays were carried out for 3 min at 37°C in a buffer containing 1 µM [α-^32P]GTP, 4 µM HCE, 50 mM Tris-HCl, pH 7.5, 5 mM MgCl2, 500 µM DTT, 0.5 ng/µl pyrophosphatase (Roche), and various concentration of MZP (as indicated). The reactions were stopped by the addition of 5 µl of loading dye (50 mM EDTA, 2% β-mercaptoethanol, 1% SDS) and analyzed on a 12% polyacrylamide gel containing 0.1% SDS. The formation of the radiolabeled HCE-[α-^32P]GMP covalent complex was quantified with a PhosphorImager. Similar experiments were conducted using only the GTase domain of HCE (HCE-G229–597). Alternatively, equimolar concentrations of MgCl2 to MZP were added to the reaction in addition to the base 5 mM MgCl2 from the buffer (MZP✯Mg^2+).\nWe next set out to identify which step (if any) of the GTase reaction is more susceptible to MZP inhibition. In order to investigate the inhibitory potency of MZP on HCE-GMP complex formation (first step), HCE was incubated with [α-^32P]GTP, magnesium and increasing concentrations MZP. […] The formation of the EpG covalent complex in single turnover condition was analyzed by SDS-PAGE and quantified by phosphorimaging. […] Nevertheless, MZP inhibition of the EpG complex formation is weak and could not be solely responsible for the global inhibitory potency of MZP."}, "[12]": {"target": "T7, HCE GTase activity (Homo sapiens, UniProt O60942)", "T7 construct": "full-length bifunctional HCE protein (amino acid 1–597); 6-His (N); made in house; host or cells: Escherichia coli BL21(DE3), pET28a", "assay": "Complete two-step RNA guanylyltransferase (GTase) reaction on 5′-diphosphate RNA", "type": "biochemical"}, "[13]": {"tested_on": "HCE GTase activity", "assay": "Complete two-step RNA guanylyltransferase (GTase) reaction on 5′-diphosphate RNA", "type": "biochemical, human", "conditions": "complete GTase reaction; HCE vs D1R, A103R, Ceg1"}, "[14]": {"target": "T5, D1R", "assay": "Complete GTase reaction, vaccinia virus GTase", "type": "biochemical"}, "[15]": {"design": "method as in PMID 19336917, PMID 15773958, PMID 11896891, PMID 12036371", "conditions": "cited from earlier work"}, "[16]": {"tested_on": "HEK 293T cells", "assay": "Inhibition of mRNA cap formation in cells (firefly luciferase reporter)", "conditions": "40 µM or 120 µM mizoribine, all cell lines, versus untreated cells"}}, "note": "Like-named read-outs stand apart in the source and are kept apart here."}
{"smiles": "Nc1nc2c(ncn2[C@@H]2O[C@H](COP(=O)(O)O)[C@@H](O)[C@H]2O)c(=O)[nH]1", "note": "[GMP]", "values": [{"measurement": "reduction of RNA capping", "setting": "[1]; GMP concentrations as high as 10 mM", "result": "≤ 25", "unit": "%"}]}
{"smiles": "NC(=O)c1ncn([C@@H]2O[C@H](COP(=O)(O)O)[C@@H](O)[C@H]2O)c1O", "note": "[MZP, Mizoribine monophosphate]", "values": [{"measurement": "IC50", "setting": "[2]", "result": 750, "unit": "µM"}, {"measurement": "decrease in potency versus full-length HCE", "setting": "[3]", "result": 10, "unit": "fold"}, {"measurement": "use as substrate and transfer onto acceptor RNA", "setting": "[4]", "result": "not able to use the MZP as a substrate"}, {"measurement": "inhibition of EpG formation", "setting": "[5]", "result": "slightly less affected"}, {"measurement": "IC50", "setting": "[6]", "result": "> 2", "unit": "mM"}, {"measurement": "IC50", "setting": "[7]", "result": 2, "unit": "mM"}, {"measurement": "IC50", "setting": "[1]; 0.1 µM HCE, 5 µM GTP, 5 µM 5′-triphosphate RNA, 5 mM MgCl2, 15 min 37°C", "result": 150, "unit": "µM"}, {"measurement": "IC50", "setting": "[8]", "result": 3, "unit": "mM"}, {"measurement": "impact on GMP transfer to acceptor RNA (second GTase step)", "setting": "[9]", "result": "only has a minor impact"}, {"measurement": "effect on RTase activity", "setting": "[10]", "result": "does not affect"}, {"measurement": "mechanism of inhibition, EpG formation", "setting": "[11]; Lineweaver-Burk, maximal velocity unaffected by MZP", "result": "competitive"}, {"measurement": "IC50", "setting": "[11]; single turnover, 4 µM HCE, 1 µM GTP, 3 min 37°C", "result": 3, "unit": "mM"}, {"measurement": "mechanism of inhibition, complete GTase reaction", "setting": "[12]; Lineweaver-Burk, Km for GTP independent of MZP concentration", "result": "non-competitive"}, {"measurement": "IC50", "setting": "[12]; steady-state, 5′-diphosphate RNA, full-length HCE", "result": 80, "unit": "µM"}, {"measurement": "difference in susceptibility, HCE versus other GTases", "setting": "[13]", "result": "5-to 25 fold"}, {"measurement": "IC50", "setting": "[14]", "result": 500, "unit": "µM"}]}
{"smiles": "NC(=O)c1ncn([C@@H]2O[C@H](CO)[C@@H](O)[C@H]2O)c1O", "note": "[mizoribine]", "values": [{"measurement": "binding to serum proteins", "setting": "[15]", "result": 2.3, "unit": "%"}, {"measurement": "effect on reporter protein expression", "setting": "[16]", "result": "global reduction in protein expression"}]}
